The series can be described thus: Microsolubility estimate by repeated addition of vehicle. To be noted: thermodynamic from solid, read-out: Microsolubility. In kind it is physicochemical. As to the method:
For CETP inhibitors where quantities were limited, an estimate of solubility was obtained by addition of vehicle to a known quantity of the compound and mixing in an ultrasonicator bath for 90 minutes, followed by overnight equilibration at ambient temperature. Addition of vehicle was repeated until a solution was achieved.
For CETP inhibitors where quantities were limited or the samples were amorphous solids, an estimate of solubility was obtained by addition of vehicle to a known quantity of the compound and mixing in an ultrasonicator bath for 90 minutes, followed by overnight equilibration at ambient temperature. Addition of vehicle was repeated until a solution was achieved. From the total volume of vehicle added to solubilize the CETP inhibitor compound, the solubility value, or so-called microsolubility, was calculated by the equation: Weight of sample (mgA)/vehicle volume (mL)=Microsolubility (mgA/mL)

The mark [1] stands for this setting: Corn, Safflower, Soybean oils, oil or lipid.
The mark [2] stands for this setting: Crodamol GTCC/Capmul MCM/Polysorbate 80 (40/40/20), oil or lipid.
The mark [3] stands for this setting: PEG 400, organic solvent or mixture.
The mark [4] stands for this setting: Cremophor EL, organic solvent or mixture.

SMILES strings stand for the structures. ≈ marks a conversion by molar mass, not a printed value. Where two headings read alike, the source gives them in different places. A value given as a limit tells only on which side of the number the result lay.

As for `CCOC(=O)N1c2cc(C(F)(F)F)ccc2[C@@H](N(Cc2cc(C(F)(F)F)cc(C(F)(F)F)c2)C(=O)OC)C[C@H]1C` [Compound I, [2R,4S] 4-[(3,5-Bis-trifluoromethyl-benzyl)-methoxycarbonyl-amino]-2-methyl-7-trifluoromethyl-3,4-dihydro-2H-quinoline-1-carboxylic acid ethyl ester], the Solubility was above 20 mg/mL (Capmul MCM, oil or lipid); below 20 mg/mL (Corn oil/Labrafil (80/20), oil or lipid); above 20 mg/mL (Corn oil/Polysorbate 80 (80/20), oil or lipid); below 20 mg/mL under setting [1]; above 20 mg/mL (Crodamol GTCC, oil or lipid); above 20 mg/mL under setting [2]. Further, the Solubility (Olive oil, oil or lipid) was below 20 mg/mL; the Solubility under setting [3] was below 20 mg/mL; the Solubility (Peanut oil, oil or lipid) is below 20 mg/mL; the Solubility (Sesame oil, oil or lipid) was below 20 mg/mL.

With `CCCOC(=O)N1c2ccc(C(F)(F)F)cc2[C@@H](N(Cc2cc(C(F)(F)F)cc(C(F)(F)F)c2)C(C)=O)CC1C1CC1` (stereo in doubt) [Compound M, [2R,4S] 4-[Acetyl-(3,5-bis-trifluoromethyl-benzyl)-amino]-2-cyclopropyl-6-trifluoromethyl-3,4-dihydro-2H-quinoline-1-carboxylic acid propyl ester], the Solubility runs as follows: (Capmul MCM, oil or lipid) above 300 mg/mL; (Miglyol 812, oil or lipid) above 300 mg/mL; (Olive oil, oil or lipid) below 300 mg/mL; (Safflower oil, oil or lipid) below 300 mg/mL.

In the case of `CCCOC(=O)N1c2ccc(C(F)(F)F)cc2[C@@H](N(C=O)Cc2cc(C(F)(F)F)cc(C(F)(F)F)c2)CC1C1CC1` (stereo in doubt) [Compound N, [2R,4S] 4-[(3,5-Bis-trifluoromethyl-benzyl)-formyl-amino]-2-cyclopropyl-6-trifluoromethyl-3,4-dihydro-2H-quinoline-1-carboxylic acid propyl ester], the Solubility was above 300 mg/mL (Capmul MCM, oil or lipid); above 300 mg/mL (Miglyol 812, oil or lipid); above 300 mg/mL (Olive oil, oil or lipid); above 300 mg/mL (Safflower oil, oil or lipid).

For `CCOC(=O)N1c2ccc(C(F)(F)F)cc2[C@@H](N(C=O)Cc2cc(C(F)(F)F)cc(C(F)(F)F)c2)C[C@H]1C` [Compound Q, [2R,4S] 4-[(3,5-Bis-trifluoromethyl-benzyl)-formyl-amino]-2-methyl-6-trifluoromethyl-3,4-dihydro-2H-quinoline-1-carboxylic acid ethyl ester], the Solubility (Capmul MCM, oil or lipid) is above 300 mg/mL; the Solubility (Miglyol 812, oil or lipid) was above 300 mg/mL; the Solubility (Olive oil, oil or lipid) is below 300 mg/mL; the Solubility (Safflower oil, oil or lipid) was below 300 mg/mL.

In the case of `CCOC(=O)N1c2ccc(C(F)(F)F)cc2[C@@H](N(Cc2cc(C(F)(F)F)cc(C(F)(F)F)c2)C(=O)OC)C[C@H]1C` [Compound L, [2R,4S] 4-[(3,5-Bis-trifluoromethyl-benzyl)-methoxycarbonyl-amino]-2-methyl-6-trifluoromethyl-3,4-dihydro-2H-quinoline-1-carboxylic acid ethyl ester], the Solubility by setting is: (Capmul MCM, oil or lipid) above 300 mg/mL; (Miglyol 812, oil or lipid) above 300 mg/mL; (Olive oil, oil or lipid) below 300 mg/mL; (Safflower oil, oil or lipid) above 300 mg/mL.

In the case of `CCCOC(=O)N1c2ccc(C(F)(F)F)cc2[C@@H](N(Cc2cc(C(F)(F)F)cc(C(F)(F)F)c2)C(=O)OC)C[C@H]1CC` [Compound F, [2R,4S] 4-[(3,5-Bis-trifluoromethyl-benzyl)-methoxycarbonyl-amino]-2-ethyl-6-trifluoromethyl-3,4-dihydro-2H-quinoline-1-carboxylic acid propyl ester], the Solubility (Miglyol 812, oil or lipid) was below 100 mg/mL and the Solubility (Olive oil, oil or lipid) was 303 mg/mL (≈ 493 mM).

With `CCOC(=O)N1c2ccc(C(F)(F)F)cc2[C@@H](N(C=O)Cc2cc(C(F)(F)F)cc(C(F)(F)F)c2)C[C@H]1CC` [Compound P, [2R,4S] 4-[(3,5-Bis-trifluoromethyl-benzyl)-formyl-amino]-2-ethyl-6-trifluoromethyl-3,4-dihydro-2H-quinoline-1-carboxylic acid ethyl ester], the Solubility reads like this: (Capmul MCM, oil or lipid) above 300 mg/mL; (Miglyol 812, oil or lipid) above 300 mg/mL; (Olive oil, oil or lipid) above 300 mg/mL; (Safflower oil, oil or lipid) below 300 mg/mL.

As to `CCOC(=O)N1c2ccc(C(F)(F)F)cc2[C@@H](N(Cc2cc(C(F)(F)F)cc(C(F)(F)F)c2)C(C)=O)C[C@H]1C` [Compound O, [2R,4S] 4-[Acetyl-(3,5-bis-trifluoromethyl-benzyl)-amino]-2-methyl-6-trifluoromethyl-3,4-dihydro-2H-quinoline-1-carboxylic acid ethyl ester], the Solubility (Capmul MCM, oil or lipid) was above 300 mg/mL; the Solubility (Miglyol 812, oil or lipid) was above 300 mg/mL; the Solubility (Olive oil, oil or lipid) is below 300 mg/mL; the Solubility (Safflower oil, oil or lipid) is below 300 mg/mL.

In the case of `COC(=O)N(Cc1cc(C(F)(F)F)cc(C(F)(F)F)c1)[C@H]1CC(C2CC2)N(C(=O)OC(C)C)c2ccc(C(F)(F)F)cc21` (stereo in doubt) [Compound G, [2R,4S] 4-[(3,5-Bis-trifluoromethyl-benzyl)-methoxycarbonyl-amino]-2-cyclopropyl-6-trifluoromethyl-3,4-dihydro-2H-quinoline-1-carboxylic acid isopropyl ester], the Solubility is, setting by setting: under setting [4], above 300 mg/mL; under setting [2], above 300 mg/mL; (Olive oil, oil or lipid) above 300 mg/mL; (Sesame oil, oil or lipid) above 300 mg/mL.

Regarding `CCOC(=O)N1c2cc3c(cc2[C@H](N(Cc2cc(C(F)(F)F)cc(C(F)(F)F)c2)C(=O)OC)C[C@@H]1C)CCC3` [Compound J, [2S,4R] 4-[(3,5-Bis-trifluoromethyl-benzyl)-methoxycarbonyl-amino]-2-methyl-2,3,4,6,7,8-hexahydro-cyclopenta[g]quinoline-1-carboxylic acid ethyl ester], the Solubility (Capmul MCM, oil or lipid) was above 100 mg/mL; the Solubility under setting [1] is above 100 mg/mL; the Solubility (Crodamol GTCC, oil or lipid) was above 100 mg/mL; the Solubility under setting [2] is above 100 mg/mL; the Solubility (Olive oil, oil or lipid) was above 100 mg/mL; the Solubility under setting [3] is 50 to 100 mg/mL (≈ 89.5 to 179 mM). For the same compound, the Solubility (Peanut oil, oil or lipid) was above 100 mg/mL and the Solubility (Sesame oil, oil or lipid) is above 100 mg/mL.

As to `COC(=O)N(Cc1cc(C(F)(F)F)cc(C(F)(F)F)c1)[C@@H]1CC(C2CC2)N(C(=O)OC(C)C)c2ccc(C(F)(F)F)cc21` (stereo in doubt) [Compound H, [2S,4R] 4-[(3,5-Bis-trifluoromethyl-benzyl)-methoxycarbonyl-amino]-2-cyclopropyl-6-trifluoromethyl-3,4-dihydro-2H-quinoline-1-carboxylic acid isopropyl ester], the Solubility runs as follows: (Capmul MCM, oil or lipid) above 300 mg/mL; under setting [1], above 300 mg/mL; under setting [4], below 160 mg/mL; (Crodamol GTCC, oil or lipid) above 300 mg/mL; (Olive oil, oil or lipid) above 300 mg/mL; under setting [3], below 160 mg/mL.

Source of the values: patent US6962931B2, “Self-emulsifying formulations of cholesteryl ester transfer protein inhibitors” (Pfizer Inc., priority 2001, dated 2005).
